Source: patent US20150299188A1, “HETEROCYCLIC COMPOUND” (priority 2012, published 2015)

tested on: FLAP (5-lipoxygenase activating protein); assay: In vitro binding test: displacement of [3H]-7-chloro-3-(5-((3-fluoropyridin-2-yl)methoxy)-2-methylphenyl)-3,4-dihydroquinazolin-2(1H)-one from Sf9 microsome fractions; parameters: species or system human and mouse; details: Sf9 microsome fractions expressing FLAP; 100% = radioligand binding with 10 μM sodium 3-(3-(tert-butylsulfanyl)-1-(4-chlorobenzyl)-5-isopropyl-1H-indol-2-yl)-2,2-dimethylpropanoate, 0% = DMSO; test compound concentration not given
Description: As an assay buffer, 100 mM Tris-HCl, pH 7.5, 140 mM NaCl, 2 mM EDTA, 0.5 mM dithiothreitol, 5% glycerol, 0.05% Tween20 was used. Sf9 microsome fractions expressing human and mouse FLAPs were dispensed by 50 μL to a 96-well plate at 2 μg/mL. Furthermore, a test compound (25 μL) diluted 4-fold of the final concentration with the assay buffer was added and mixed therewith, and the mixture was incubated at room temperature for 10 min. Furthermore, 120 nM [^3H]-7-chloro-3-(5-((3-fluoropyridin-2-yl)methoxy)-2-methylphenyl)-3,4-dihydroquinazolin-2(1H)-one was added by 25 μL, and mixed therewith, and the mixture was incubated at room temperature for 60 min. Thereafter, the cells were transferred to a 96-well GF/B Unifilter plate with a FilterMate cell harvester, and washed 3 times with a wash buffer (100 mM Tris-HCl pH 7.5, 0.05% Tween20, 200 μL) cooled to 4° C. The GF/B Unifilter plate was dried at 37° C., Microscint 0 was added and measured by TopCount NXT (PerkinElmer). As for the inhibitory activity, the inhibitory rate was calculated wherein the [^3H]-7-chloro-3-(5-((3-fluoropyridin-2-yl)methoxy)-2-methylphenyl)-3,4-dihydroquinazolin-2(1H)-one binding amount in the presence of 10 μM sodium 3-(3-(tert-butylsulfanyl)-1-(4-chlorobenzyl)-5-isopropyl-1H-indol-2-yl)-2,2-dimethylpropanoate was 100%, and the [^3H]-7-chloro-3-(5-((3-fluoropyridin-2-yl)methoxy)-2-methylphenyl)-3,4-dihydroquinazolin-2(1H)-one binding amount in the presence of DMSO was 0%.

Row | Compound | inhibitory rate (%)
1 | O=C1Nc2ccnc(Cl)c2CN1c1cc2c(cc1Cl)CCC(c1ncccc1F)O2 (racemic) [Example 1, 5-chloro-3-(6-chloro-2-(3-fluoropyridin-2-yl)-3,4-dihydro-2H-chromen-7-yl)-3,4-dihydropyrido[4,3-d]pyrimidin-2(1H)-one] | 94
2 | Cc1cc2c(cc1N1Cc3c(Cl)cnc(-c4c(C)noc4C)c3NC1=O)OC(c1ncccc1F)CC2 (single isomer, unassigned; (+)) [Example 12, (+)-5-chloro-8-(3,5-dimethyl-1,2-oxazol-4-yl)-3-(2-(3-fluoropyridin-2-yl)-6-methyl-3,4-dihydro-2H-chromen-7-yl)-3,4-dihydropyrido[3,4-d]pyrimidin-2(1H)-one] | 99
3 | Cc1cc2c(cc1N1Cc3c(Cl)cnc(-c4c(C)nn(C)c4C)c3NC1=O)OC(c1ncccc1F)CC2 (single isomer, unassigned; (+)) [Example 14, (+)-5-chloro-3-(2-(3-fluoropyridin-2-yl)-6-methyl-3,4-dihydro-2H-chromen-7-yl)-8-(1,3,5-trimethyl-1H-pyrazol-4-yl)-3,4-dihydropyrido[3,4-d]pyrimidin-2(1H)-one] | 105
4 | Cc1cc2c(cc1N1Cc3c(Cl)cnc(-c4c(C)noc4C)c3NC1=O)OC(c1ncccc1F)CC2 (single isomer, unassigned; (-)) [Example 11, (−)-5-chloro-8-(3,5-dimethyl-1,2-oxazol-4-yl)-3-(2-(3-fluoropyridin-2-yl)-6-methyl-3,4-dihydro-2H-chromen-7-yl)-3,4-dihydropyrido[3,4-d]pyrimidin-2(1H)-one] | 109
5 | Cc1cc2c(cc1N1Cc3c(Cl)cnc(-c4c(C)nn(C)c4C)c3NC1=O)OC(c1ncccc1F)CC2 (single isomer, unassigned; (-)) [Example 15, (−)-5-chloro-3-(2-(3-fluoropyridin-2-yl)-6-methyl-3,4-dihydro-2H-chromen-7-yl)-8-(1,3,5-trimethyl-1H-pyrazol-4-yl)-3,4-dihydropyrido[3,4-d]pyrimidin-2(1H)-one] | 102
6 | O=C1Nc2ccnc(Cl)c2CN1c1cc2c(cc1Cl)CC[C@@H](c1ncccc1F)O2 [Example 2, 5-chloro-3-((2S)-6-chloro-2-(3-fluoropyridin-2-yl)-3,4-dihydro-2H-chromen-7-yl)-3,4-dihydropyrido[4,3-d]pyrimidin-2(1H)-one] | 102
7 | O=C1Nc2ccnc(Cl)c2CN1c1cc2c(cc1Cl)CC[C@H](c1ncccc1F)O2 [Example 3, 5-chloro-3-((2R)-6-chloro-2-(3-fluoropyridin-2-yl)-3,4-dihydro-2H-chromen-7-yl)-3,4-dihydropyrido[4,3-d]pyrimidin-2(1H)-one] | 97
8 | Cc1cc2c(cc1N1Cc3c(ccnc3C(F)(F)F)NC1=O)OC(c1ncccc1F)CC2 (stereo not drawn) [Example 4, 3-(2-(3-fluoropyridin-2-yl)-6-methyl-3,4-dihydro-2H-chromen-7-yl)-5-(trifluoromethyl)-3,4-dihydropyrido[4,3-d]pyrimidin-2(1H)-one] | 103
9 | Cc1cc2c(cc1N1Cc3c(ccnc3C(F)(F)F)NC1=O)O[C@@H](c1ncccc1F)CC2 [Example 5, 3-((2R)-2-(3-fluoropyridin-2-yl)-6-methyl-3,4-dihydro-2H-chromen-7-yl)-5-(trifluoromethyl)-3,4-dihydropyrido[4,3-d]pyrimidin-2(1H)-one] | 100
10 | Cc1cc2c(cc1N1Cc3c(ccnc3C(F)(F)F)NC1=O)O[C@H](c1ncccc1F)CC2 [Example 6, 3-((2S)-2-(3-fluoropyridin-2-yl)-6-methyl-3,4-dihydro-2H-chromen-7-yl)-5-(trifluoromethyl)-3,4-dihydropyrido[4,3-d]pyrimidin-2(1H)-one] | 98
11 | Cc1ncc(Cl)c2c1NC(=O)N(c1cc3c(cc1Cl)CCC(c1ncccc1F)O3)C2 (stereo not drawn) [Example 7, 5-chloro-3-(6-chloro-2-(3-fluoropyridin-2-yl)-3,4-dihydro-2H-chromen-7-yl)-8-methyl-3,4-dihydropyrido[3,4-d]pyrimidin-2(1H)-one] | 98
12 | Cc1ncc(Cl)c2c1NC(=O)N(c1cc3c(cc1Cl)CC[C@H](c1ncccc1F)O3)C2 [Example 8, 5-chloro-3-((2R)-6-chloro-2-(3-fluoropyridin-2-yl)-3,4-dihydro-2H-chromen-7-yl)-8-methyl-3,4-dihydropyrido[3,4-d]pyrimidin-2(1H)-one] | 103
13 | Cc1ncc(Cl)c2c1NC(=O)N(c1cc3c(cc1Cl)CC[C@@H](c1ncccc1F)O3)C2 [Example 9, 5-chloro-3-((2S)-6-chloro-2-(3-fluoropyridin-2-yl)-3,4-dihydro-2H-chromen-7-yl)-8-methyl-3,4-dihydropyrido[3,4-d]pyrimidin-2(1H)-one] | 104
14 | Cc1cc2c(cc1N1Cc3c(Cl)cnc(-c4c(C)noc4C)c3NC1=O)OC(c1ncccc1F)CC2 (stereo not drawn) [Example 10, 5-chloro-8-(3,5-dimethyl-1,2-oxazol-4-yl)-3-(2-(3-fluoropyridin-2-yl)-6-methyl-3,4-dihydro-2H-chromen-7-yl)-3,4-dihydropyrido[3,4-d]pyrimidin-2(1H)-one] | 94
15 | Cc1cc2c(cc1N1Cc3c(Cl)cnc(-c4c(C)nn(C)c4C)c3NC1=O)OC(c1ncccc1F)CC2 (stereo not drawn) [Example 13, 5-chloro-3-(2-(3-fluoropyridin-2-yl)-6-methyl-3,4-dihydro-2H-chromen-7-yl)-8-(1,3,5-trimethyl-1H-pyrazol-4-yl)-3,4-dihydropyrido[3,4-d]pyrimidin-2(1H)-one] | 101
16 | COc1cc2c(c(C3CC3)n1)CN(c1cc3c(cc1Cl)CCC(c1ncccc1F)O3)C(=O)N2 (stereo not drawn) [Example 16, 3-(6-chloro-2-(3-fluoropyridin-2-yl)-3,4-dihydro-2H-chromen-7-yl)-5-cyclopropyl-7-methoxy-3,4-dihydropyrido[4,3-d]pyrimidin-2(1H)-one] | 102
17 | O=C1Nc2cc(=O)[nH]c(C3CC3)c2CN1c1cc2c(cc1Cl)CCC(c1ncccc1F)O2 (stereo not drawn) [Example 17, 3-(6-chloro-2-(3-fluoropyridin-2-yl)-3,4-dihydro-2H-chromen-7-yl)-5-cyclopropyl-4,6-dihydropyrido[4,3-d]pyrimidine-2,7(1H,3H)-dione] | 110
18 | O=C1Nc2cc(OC(F)F)nc(C3CC3)c2CN1c1cc2c(cc1Cl)CCC(c1ncccc1F)O2 (stereo not drawn) [Example 18, 3-(6-chloro-2-(3-fluoropyridin-2-yl)-3,4-dihydro-2H-chromen-7-yl)-5-cyclopropyl-7-(difluoromethoxy)-3,4-dihydropyrido[4,3-d]pyrimidin-2(1H)-one] | 88
19 | O=C1Nc2cc(OC(F)F)nc(C3CC3)c2CN1c1cc2c(cc1Cl)CC[C@H](c1ncccc1F)O2 [Example 19, 3-((2R)-6-chloro-2-(3-fluoropyridin-2-yl)-3,4-dihydro-2H-chromen-7-yl)-5-cyclopropyl-7-(difluoromethoxy)-3,4-dihydropyrido[4,3-d]pyrimidin-2(1H)-one] | 102
20 | O=C1Nc2cc(OC(F)F)nc(C3CC3)c2CN1c1cc2c(cc1Cl)CC[C@@H](c1ncccc1F)O2 [Example 20, 3-((2S)-6-chloro-2-(3-fluoropyridin-2-yl)-3,4-dihydro-2H-chromen-7-yl)-5-cyclopropyl-7-(difluoromethoxy)-3,4-dihydropyrido[4,3-d]pyrimidin-2(1H)-one] | 96
21 | COc1nccc2c1CN(c1cc3c(cc1C)CCC(c1ncccc1F)O3)C(=O)N2 (stereo not drawn) [Example 21, 3-(2-(3-fluoropyridin-2-yl)-6-methyl-3,4-dihydro-2H-chromen-7-yl)-5-methoxy-3,4-dihydropyrido[4,3-d]pyrimidin-2 (1H)-one] | 103
22 | Cc1cc2c(cc1N1Cc3c(Cl)cncc3NC1=O)OC(c1ncccc1F)CC2 (stereo not drawn) [Example 22, 5-chloro-3-(2-(3-fluoropyridin-2-yl)-6-methyl-3,4-dihydro-2H-chromen-7-yl)-3,4-dihydropyrido[3,4-d]pyrimidin-2(1H)-one] | 109
23 | COc1cncc2c1CN(c1cc3c(cc1C)CCC(c1ncccc1F)O3)C(=O)N2 (stereo not drawn) [Example 23, 3-(2-(3-fluoropyridin-2-yl)-6-methyl-3,4-dihydro-2H-chromen-7-yl)-5-methoxy-3,4-dihydropyrido[3,4-d]pyrimidin-2(1H)-one] | 92
24 | Cc1cc2c(cc1N1Cc3c(ccnc3C(F)F)NC1=O)OC(c1ncccc1F)CC2 (stereo not drawn) [Example 24, 5-(difluoromethyl)-3-(2-(3-fluoropyridin-2-yl)-6-methyl-3,4-dihydro-2H-chromen-7-yl)-3,4-dihydropyrido[4,3-d]pyrimidin-2 (1H)-one] | 96
